Results from paper PMC7031696 (Cell chemical biology, 2019).
pIC50: −log10 of the molar value. Like-named read-outs stand apart in the source and are kept apart here.

Legend:
[1] = tested on: 3D7-MR4 trophozoite parasite-infected RBCs; details: 10 × IC50^72h; ref Allman et al., 2016; cited from earlier work
[2] = tested on: 3D7-A10 or Dd2-B2 parasites; details: 3 × IC50^72h drug concentrations; ref Phillips et al., 2015; cited from earlier work
[3] = tested on: asynchronous 3D7-A10 parasite cultures; assay: Standard 72-h exposure asexual blood stage susceptibility assay (IC50^72h); format: cell-based, Plasmodium falciparum; details: Plasmodium falciparum, 3D7, 72 h, read-out: Overall (72hr assay) Mean IC50 (IC50^72h)
[4] = tested on: Plasmodium falciparum 3D7-A10 parasites; assay: Stage specificity assay (8-h exposure of synchronized stages, IC50^8h); format: cell-based; details: for pIC50: Plasmodium falciparum
[5] = tested on: 3D7-MR4 trophozoite parasite-infected RBCs; assay: Metabolomic profiling (hydrophilic metabolite changes, UHPLC-MS); format: cell-based, Plasmodium falciparum

## Cc1cc(Nc2ccc(S(F)(F)(F)(F)F)cc2)n2nc(C(C)(F)F)nc2n1 [DSM265, reference compound]
[1]
  metabolic signature: increases in the pyrimidine precursors dihydroorotate and N-carbamoyl-L-aspartate (mETC disruption): observed
[2]
  minimum inoculum for resistance: 2 × 10^6 parasites
[3]
  pIC50: 8.42
[4]; 3D7-A10
  Ratio lowest IC50 8hr/IC50 72hr: 2.0
[4]; 8-h exposures
  overall activity profile (stages on which active): activity against late trophozoites only
[4]; 8-h exposures, survival curves
  killing in stage specificity assay: incomplete killing
[4]; 3D7, read-out: Early rings Mean IC50, shift 2
  pIC50: 5.32
[4]; 3D7, read-out: Early trophozoites Mean IC50, shift 1
  pIC50: 7.99
[4]; 3D7, read-out: Early trophozoites Mean IC50, shift 2
  pIC50: 5.83
[4]; 3D7, read-out: Late rings Mean IC50, shift 2
  pIC50: 5.83
[4]; 3D7, read-out: Late trophozoites Mean IC50, shift 1
  pIC50: 8.11
[4]; 3D7, read-out: Schizonts IC50, shift 2
  pIC50: < 4.60
[4]; 3D7, read-out: Schizonts Mean IC50, shift 1
  pIC50: 7.72
[4]; early trophozoite and schizont stages
  shape of survival curve: biphasic survival curve
[4]; period when the parasite was most susceptible (lowest IC50^8h)
  Stage of peak activity (Figure 6): late trophozoite stages
[4]; stage(s) with the lowest IC50^8h
  Peak Activity (Table S1): Late Trophs
[5]; metabolite 3-phosphoglycerate, log2 fold change
  Log2(fold changes) 3-phosphoglycerate: 0.0300
[5]; metabolite 4-Pyridoxic acid, log2 fold change
  Log2(fold changes) 4-Pyridoxic acid: -1.9900
[5]; metabolite 4-aminobutyrate, log2 fold change
  Log2(fold changes) 4-aminobutyrate: 0.1300
[5]; metabolite 4-phosphopantetheine, log2 fold change
  Log2(fold changes) 4-phosphopantetheine: 0.0000
[5]; metabolite 4-phosphopantothenate, log2 fold change
  Log2(fold changes) 4-phosphopantothenate: -0.1800
[5]; metabolite 5-aminopentanoic acid, log2 fold change
  Log2(fold changes) 5-aminopentanoic acid: 0.0000
[5]; metabolite 5-methyl-THF, log2 fold change
  Log2(fold changes) 5-methyl-THF: 0.0000
[5]; metabolite 5-phosphoribosyl-1-pyrophosphate, log2 fold change
  Log2(fold changes) 5-phosphoribosyl-1-pyrophosphate: -0.0200
[5]; metabolite 6-phospho-D-gluconate, log2 fold change
  Log2(fold changes) 6-phospho-D-gluconate: 0.2100
[5]; metabolite HVDD
  Log2(fold change) HVDD: 0.0000
[5]; metabolite Hydroxyisocaproic acid
  Log2(fold change) Hydroxyisocaproic acid: 0.0000
[5]; metabolite IDP
  Log2(fold change) IDP: 0.0000
[5]; metabolite IMP
  Log2(fold change) IMP: 0.1000
[5]; metabolite Inositol
  Log2(fold change) Inositol: 0.0000
[5]; metabolite Isopentyl-PP
  Log2(fold change) Isopentyl-PP: 0.0000
[5]; metabolite L-arginino-succinate
  Log2(fold change) L-arginino-succinate: 0.0000
[5]; metabolite LD
  Log2(fold change) LD: 0.0100
[5]; metabolite Myristoyl/tetradecanoyl-CoA
  Log2(fold change) Myristoyl/tetradecanoyl-CoA: 0.0000
[5]; metabolite N-Acetyl-L-alanine
  Log2(fold change) N-Acetyl-L-alanine: -0.3700
[5]; metabolite N-acetyl-L-ornithine
  Log2(fold change) N-acetyl-L-ornithine: -0.2000
[5]; metabolite N-acetyl-glucosamine-1/6-phosphate
  Log2(fold change) N-acetyl-glucosamine-1/6-phosphate: -0.7400
[5]; metabolite N-acetyl-glutamate
  Log2(fold change) N-acetyl-glutamate: 0.0900
[5]; metabolite N-acetyl-glutamine
  Log2(fold change) N-acetyl-glutamine: -0.1600
[5]; metabolite N-carbamoyl-L-aspartate
  Log2(fold change) N-carbamoyl-L-aspartate: 4.8500
[5]; metabolite NAD+
  Log2(fold change) NAD+: 0.1500
[5]; metabolite NADH
  Log2(fold change) NADH: 0.7500
[5]; metabolite NADP+
  Log2(fold change) NADP+: 0.0800
[5]; metabolite NADPH
  Log2(fold change) NADPH: 0.6400
[5]; metabolite O-acetyl-L-serine
  Log2(fold change) O-acetyl-L-serine: 0.0000
[5]; metabolite Octoluse 8/1P
  Log2(fold change) Octoluse 8/1P: 0.2400
[5]; metabolite Octoluse Bisphosphate
  Log2(fold change) Octoluse Bisphosphate: -0.2600
[5]; metabolite PD
  Log2(fold change) PD: -0.0800
[5]; metabolite PE
  Log2(fold change) PE: -0.3900
[5]; metabolite PEE
  Log2(fold change) PEE: -0.4300
[5]; metabolite PEEK
  Log2(fold change) PEEK: -0.3200
[5]; metabolite PVNF
  Log2(fold change) PVNF: -0.8600
[5]; metabolite Pyroglutamic acid
  Log2(fold change) Pyroglutamic acid: 0.0900
[5]; metabolite Pyrophosphate
  Log2(fold change) Pyrophosphate: 0.2500
[5]; metabolite Ribose-5-phosphate
  Log2(fold change) Ribose-5-phosphate: 0.0000
[5]; metabolite S-adenosyl-L-homocysteine
  Log2(fold change) S-adenosyl-L-homocysteine: -1.4900
[5]; metabolite S-adenosyl-L-methioninamine
  Log2(fold change) S-adenosyl-L-methioninamine: 0.0000
[5]; metabolite S-adenosyl-L-methionine
  Log2(fold change) S-adenosyl-L-methionine: 0.0000
[5]; metabolite S-methyl-5'-thioadenosine
  Log2(fold change) S-methyl-5'-thioadenosine: -0.0400
[5]; metabolite SD
  Log2(fold change) SD: -0.2500
[5]; metabolite SDL
  Log2(fold change) SDL: 0.0000
[5]; metabolite SID
  Log2(fold change) SID: 0.0000
[5]; metabolite Sedoheptulose bisphosphate
  Log2(fold change) Sedoheptulose bisphosphate: 0.0300
[5]; metabolite Thiamine pyrophosphate
  Log2(fold change) Thiamine pyrophosphate: 0.0000
[5]; metabolite UDP-D-glucose, log2 fold change
  Log2(fold changes) UDP-D-glucose: 0.0500
[5]; metabolite UDP-D-glucuronate, log2 fold change
  Log2(fold changes) UDP-D-glucuronate: 0.0200
[5]; metabolite UDP-N-acetyl-glucosamine, log2 fold change
  Log2(fold changes) UDP-N-acetyl-glucosamine: -0.1200
[5]; metabolite UDP, log2 fold change
  Log2(fold changes) UDP: -1.5400
[5]; metabolite UMP, log2 fold change
  Log2(fold changes) UMP: -0.9900
[5]; metabolite UTP, log2 fold change
  Log2(fold changes) UTP: -1.4400
[5]; metabolite hydroxyphenylpyruvate
  Log2(fold change) hydroxyphenylpyruvate: 0.0000
[5]; metabolite hydroxyproline/Aminolevulinate
  Log2(fold change) hydroxyproline/Aminolevulinate: 0.0000
[5]; metabolite hypoxanthine
  Log2(fold change) hypoxanthine: 0.3100
[5]; metabolite indole
  Log2(fold change) indole: 0.1900
[5]; metabolite inosine
  Log2(fold change) inosine: 0.2300
[5]; metabolite isoleucine
  Log2(fold change) isoleucine: 0.0000
[5]; metabolite lactate
  Log2(fold change) lactate: -0.1200
[5]; metabolite leucine
  Log2(fold change) leucine: 0.0000
[5]; metabolite lysine
  Log2(fold change) lysine: 0.0000
[5]; metabolite malate
  Log2(fold change) malate: -0.2600
[5]; metabolite maleic acid
  Log2(fold change) maleic acid: 0.0000
[5]; metabolite methionine
  Log2(fold change) methionine: 0.0000
[5]; metabolite myo-inositol
  Log2(fold change) myo-inositol: -0.8500
[5]; metabolite nicotinamide mononucleotide
  Log2(fold change) nicotinamide mononucleotide: 0.0000
[5]; metabolite nicotinate
  Log2(fold change) nicotinate: -0.0300
[5]; metabolite ornithine
  Log2(fold change) ornithine: -0.1100
[5]; metabolite orotate
  Log2(fold change) orotate: -0.2100
[5]; metabolite orotidine-5'-phosphate
  Log2(fold change) orotidine-5'-phosphate: 0.0000
[5]; metabolite oxaloacetate
  Log2(fold change) oxaloacetate: 0.0000
[5]; metabolite p-aminobenzoate
  Log2(fold change) p-aminobenzoate: 0.0000
[5]; metabolite p-hydroxybenzoate
  Log2(fold change) p-hydroxybenzoate: 0.2000
[5]; metabolite pantothenate
  Log2(fold change) pantothenate: 0.0000
[5]; metabolite phenylalanine
  Log2(fold change) phenylalanine: 0.0000
[5]; metabolite phenylpyruvate
  Log2(fold change) phenylpyruvate: 1.0600
[5]; metabolite phosphoenolpyruvate
  Log2(fold change) phosphoenolpyruvate: 0.0800
[5]; metabolite prephenate
  Log2(fold change) prephenate: 0.0000
[5]; metabolite proline
  Log2(fold change) proline: 0.0000
[5]; metabolite pyridoxine
  Log2(fold change) pyridoxine: 0.0000
[5]; metabolite pyruvate
  Log2(fold change) pyruvate: 0.0500
[5]; metabolite riboflavin
  Log2(fold change) riboflavin: 0.0000
[5]; metabolite ribose
  Log2(fold change) ribose: 0.0000
[5]; metabolite ribose-phosphate
  Log2(fold change) ribose-phosphate: 0.2500
[5]; metabolite ribulose-5-phosphate
  Log2(fold change) ribulose-5-phosphate: 0.0000
[5]; metabolite serine
  Log2(fold change) serine: 0.0000
[5]; metabolite sn-glycerol-3-phosphate
  Log2(fold change) sn-glycerol-3-phosphate: 0.1700
[5]; metabolite succinate/Methylmalonic acid
  Log2(fold change) succinate/Methylmalonic acid: -0.0400
[5]; metabolite succinyl-CoA/methylmalonyl-CoA
  Log2(fold change) succinyl-CoA/methylmalonyl-CoA: 0.0000
[5]; metabolite taurine
  Log2(fold change) taurine: 0.0000
[5]; metabolite thiamine
  Log2(fold change) thiamine: 0.0000
[5]; metabolite threonine/homoserine
  Log2(fold change) threonine/homoserine: 0.0000
[5]; metabolite thymidine
  Log2(fold change) thymidine: -0.5100
[5]; metabolite thymine, log2 fold change
  Log2(fold changes) thymine: -0.0500
[5]; metabolite trehalose-6-Phosphate, log2 fold change
  Log2(fold changes) trehalose-6-Phosphate: 0.0000
[5]; metabolite tryptophan, log2 fold change
  Log2(fold changes) tryptophan: 0.0000
[5]; metabolite tyrosine, log2 fold change
  Log2(fold changes) tyrosine: 0.0000
[5]; metabolite uridine, log2 fold change
  Log2(fold changes) uridine: -0.1000
